According to article PMC10583824, “The rational design of ARUK2007145, a dual inhibitor of the α and γ isoforms of the lipid kinase phosphatidylinositol 5-phosphate 4-kinase (PI5P4K)” (RSC Medicinal Chemistry, 2023):
Values after ≈ are worked out from the molar mass of the structure shown.

test system: PI5P4Kγ+; test: not given; conditions: ratio PI5P4Kα IC50 / PI5P4Kγ+ IC50, ADP-Glo

Row | Fold-selectivity (α IC50/γ IC50) | SMILES
1 | 6.0 | CSc1ccc(Nc2ncnc3sc(-c4cnoc4)cc23)cc1 [Compound 29]
2 | 5.9 | Cc1ncccc1-c1cc2ncnc(Nc3ccc4ncoc4c3)c2s1 [Compound 41]

test system: not listed separately; test: Mouse liver microsome stability; type: in vitro ADME; conditions: mouse liver microsomes half-life; read-out: MLM t½
Method: (§1) ADMET experimental methods […]
Mouse Microsomal stability: analysis was performed by Cyprotex Discovery. Briefly, test compounds in DMSO
protein/mL) in the presence of NADPH (1 mM) at 37 °C. Aliquots were taken at time intervals (0, 5, 15, 30 and
compound remaining, allowing the determination of the half-life for the compound.

Row | half-life at 1 µM | SMILES
3 | 35.5 min | Cc1ncccc1-c1cc2c(Nc3ccc(S(C)(=O)=O)cc3)ncnc2s1 [Compound 17]
4 | 5.39 min | Cc1ncccc1-c1cc2ncnc(Nc3ccc(N4CCCC4=O)cc3)c2s1 [Compound 42]
5 | 9.23 min | Cc1cnccc1-c1cc2c(Nc3ccc(S(C)(=O)=O)cc3)ncnc2s1 [Compound 10]

target: T1, PI5P4Kγ-WT (Homo sapiens, UniProt Q8TBX8); test: InCELL Pulse cellular target engagement (thermal stabilisation) assay; conditions: Hek293 cells stably expressing ePL-tagged PI5P4Kγ
T1 sequence (Q8TBX8 1-421): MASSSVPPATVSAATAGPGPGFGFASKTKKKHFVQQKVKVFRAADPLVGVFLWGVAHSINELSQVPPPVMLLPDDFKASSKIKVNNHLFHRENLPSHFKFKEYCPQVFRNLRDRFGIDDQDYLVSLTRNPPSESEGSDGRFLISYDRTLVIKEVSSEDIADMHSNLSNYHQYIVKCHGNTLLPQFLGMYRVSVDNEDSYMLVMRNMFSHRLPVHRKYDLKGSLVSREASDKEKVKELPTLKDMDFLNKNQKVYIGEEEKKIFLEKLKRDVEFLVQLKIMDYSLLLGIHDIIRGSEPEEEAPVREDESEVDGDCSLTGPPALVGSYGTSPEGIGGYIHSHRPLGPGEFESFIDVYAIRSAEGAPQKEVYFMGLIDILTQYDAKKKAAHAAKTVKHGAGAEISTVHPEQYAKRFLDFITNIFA

Row | InCELL Pulse pIC50 PI5P4Kγ-WT | SMILES
6 | 7.3 | Cc1ncccc1-c1cc2c(Nc3ccc(S(C)(=O)=O)cc3)ncnc2s1 [Compound 17]
7 | 7.7 | Cc1cnccc1-c1cc2c(Nc3ccc(S(C)(=O)=O)cc3)ncnc2s1 [Compound 10]

test system: not listed separately; test: Turbidimetric aqueous solubility; type: physicochemical; conditions: pH 7.4, turbidimetric
Method: as §1
Turbidimetric aqueous solubility: analysis was performed by Cyprotex Discovery. Compound in DMSO at 10 mM was serially diluted to solutions of 0.1, 0.3, 1 and 3 mM in DMSO, then further diluted 1 in 100 in buffer (0.01 M PBS, pH 7.4, 1% DMSO final). 7 replicate wells of each dilution were equilibrated for 2 hours at 37 °C before absorbance is measured at 620 nm. The solubility is estimated from the concentration of test compound that produces an increase in absorbance above vehicle control (1% DMSO in buffer). […]

Row | solubility at 2 h | SMILES
8 | 10 µM (≈ 3.96 µg/mL) | Cc1ncccc1-c1cc2c(Nc3ccc(S(C)(=O)=O)cc3)ncnc2s1 [Compound 17]
9 | 10 µM (≈ 4.01 µg/mL) | Cc1ncccc1-c1cc2ncnc(Nc3ccc(N4CCCC4=O)cc3)c2s1 [Compound 42]
10 | 30 µM (≈ 11.9 µg/mL) | Cc1cnccc1-c1cc2c(Nc3ccc(S(C)(=O)=O)cc3)ncnc2s1 [Compound 10]

target: T2, PI5P4Kγ+ (Homo sapiens, UniProt Q8TBX8, D138G/D197E/E133P/E135D/E153T/E196G/G139A/N195G/S132L/S134N); test: biochemical; conditions: ADP-Glo pIC50 PI5P4Kγ+, Table S1, two decimals; asterisk not explained
T2 sequence (Q8TBX8 with tags, fused parts or gaps INS131LPN/S132D/E133S/S134Q/E135A/G136R/D138G/G139A/E153T/N195G/E196G/D197E): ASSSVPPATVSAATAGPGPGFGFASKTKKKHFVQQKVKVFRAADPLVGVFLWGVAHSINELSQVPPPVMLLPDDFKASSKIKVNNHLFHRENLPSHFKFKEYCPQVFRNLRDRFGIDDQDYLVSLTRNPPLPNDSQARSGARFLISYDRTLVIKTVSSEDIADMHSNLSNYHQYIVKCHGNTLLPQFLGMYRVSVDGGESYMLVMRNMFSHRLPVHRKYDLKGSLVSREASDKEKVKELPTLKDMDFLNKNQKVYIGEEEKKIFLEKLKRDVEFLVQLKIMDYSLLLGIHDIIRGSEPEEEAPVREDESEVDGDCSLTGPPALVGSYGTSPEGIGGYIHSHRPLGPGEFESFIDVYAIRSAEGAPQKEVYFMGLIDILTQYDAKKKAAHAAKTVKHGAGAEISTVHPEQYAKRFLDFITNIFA

Row | SMILES | IC50
11 | CSc1ccc(Nc2ncnc3sc(-c4cnoc4)cc23)cc1 [Compound 29] | 42.7 nM
12 | Cc1ncccc1-c1cc2ncnc(Nc3ccc4ncoc4c3)c2s1 [Compound 41] | 562 nM

Molecules with a lower IC50, results first:

Row | IC50 | SMILES
13 | 20.9 nM | Cc1ncccc1-c1cc2c(Nc3ccc(S(C)(=O)=O)cc3)ncnc2s1 [Compound 17]
14 | 8.32 nM | Cc1ncccc1-c1cc2ncnc(Nc3ccc(N4CCCC4=O)cc3)c2s1 [Compound 42]
15 | 12.9 nM | Cc1cnccc1-c1cc2c(Nc3ccc(S(C)(=O)=O)cc3)ncnc2s1 [Compound 10]

same assay, conditions: PI5P4Kγ+ pIC50, ADP-Glo; footnote a: inconsistent replicates, value shown is upper limit

Row | SMILES | IC50
16 | CSc1ccc(Nc2ncnc3sc(-c4cnoc4)cc23)cc1 [Compound 29] | 39.8 nM
17 | Cc1ncccc1-c1cc2ncnc(Nc3ccc4ncoc4c3)c2s1 [Compound 41] | 501 nM

The next lines start with the values.

Row | IC50 | SMILES
18 | 20 nM | Cc1ncccc1-c1cc2c(Nc3ccc(S(C)(=O)=O)cc3)ncnc2s1 [Compound 17]
19 | 7.94 nM | Cc1ncccc1-c1cc2ncnc(Nc3ccc(N4CCCC4=O)cc3)c2s1 [Compound 42]
20 | 12.6 nM | Cc1cnccc1-c1cc2c(Nc3ccc(S(C)(=O)=O)cc3)ncnc2s1 [Compound 10]

target: T3, PI5P4Kα (Homo sapiens, UniProt P48426); test: biochemical; conditions: ADP-Glo pIC50 PI5P4Kα, Table S1, two decimals; asterisk not explained
T3 sequence (P48426 1-406): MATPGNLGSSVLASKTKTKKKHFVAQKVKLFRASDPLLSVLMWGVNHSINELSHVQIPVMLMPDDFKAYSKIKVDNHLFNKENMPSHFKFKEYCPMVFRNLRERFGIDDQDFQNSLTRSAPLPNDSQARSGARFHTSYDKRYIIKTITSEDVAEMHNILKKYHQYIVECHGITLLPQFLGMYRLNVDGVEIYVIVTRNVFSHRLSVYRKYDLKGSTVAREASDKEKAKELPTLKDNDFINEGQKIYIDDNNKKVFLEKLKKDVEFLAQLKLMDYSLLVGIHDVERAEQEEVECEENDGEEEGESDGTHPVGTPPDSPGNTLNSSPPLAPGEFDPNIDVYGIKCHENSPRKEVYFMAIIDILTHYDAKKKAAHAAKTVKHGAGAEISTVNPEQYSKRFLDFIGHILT

Row | IC50 | SMILES
21 | 1120 nM | Cc1ncccc1-c1cc2c(Nc3ccc(S(C)(=O)=O)cc3)ncnc2s1 [Compound 17]
22 | 112 nM | Cc1ncccc1-c1cc2ncnc(Nc3ccc(N4CCCC4=O)cc3)c2s1 [Compound 42]
23 | 708 nM | Cc1cnccc1-c1cc2c(Nc3ccc(S(C)(=O)=O)cc3)ncnc2s1 [Compound 10]

target: T4, PI5P4Kβ (Homo sapiens, UniProt P78356); test: PI5P4Kβ ADP-Glo kinase assay; conditions: not given
T4 sequence (P78356 1-416): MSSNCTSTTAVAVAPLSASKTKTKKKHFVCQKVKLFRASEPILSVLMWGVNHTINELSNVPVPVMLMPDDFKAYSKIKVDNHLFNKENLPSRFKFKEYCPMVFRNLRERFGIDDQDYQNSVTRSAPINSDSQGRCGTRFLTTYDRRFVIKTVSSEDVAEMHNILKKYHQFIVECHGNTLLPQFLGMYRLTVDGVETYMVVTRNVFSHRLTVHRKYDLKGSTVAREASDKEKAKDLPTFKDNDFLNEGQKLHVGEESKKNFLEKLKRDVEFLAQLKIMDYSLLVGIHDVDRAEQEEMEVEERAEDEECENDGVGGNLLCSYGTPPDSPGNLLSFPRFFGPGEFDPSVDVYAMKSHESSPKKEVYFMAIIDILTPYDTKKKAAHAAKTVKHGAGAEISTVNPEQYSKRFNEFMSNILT

Row | ADP-Glo pIC50 PI5P4Kβ | SMILES
24 | 4.7 | Cc1ncccc1-c1cc2c(Nc3ccc(S(C)(=O)=O)cc3)ncnc2s1 [Compound 17]
25 | 4.9 | Cc1cnccc1-c1cc2c(Nc3ccc(S(C)(=O)=O)cc3)ncnc2s1 [Compound 10]

test system: MDCK-MDR1 cells; test: MDR1-MDCK bi-directional permeability and efflux; conditions: MDCK-MDR1 cells; A2B; 10 µM
Method: MDR1-MDCK Permeability (bi-directional): was performed by Cyprotex Discovery. Briefly, compounds were administered at 10 µM (1% DMSO final) to the apical or basolateral side of a confluent monolayer of MDR1-MDCK cells, then incubated at 37 °C for 60 minutes before appearance on the opposite side of the monolayer was determined LC-MS/MS. The efflux ratio (ER) is calculated from the ratio of B-A to A-B permeabilities.

Row | P app (A2B) | SMILES
26 | 1.33 10^−6 cm s^−1 | Cc1ncccc1-c1cc2c(Nc3ccc(S(C)(=O)=O)cc3)ncnc2s1 [Compound 17]
27 | 3.15 10^−6 cm s^−1 | Cc1ncccc1-c1cc2ncnc(Nc3ccc(N4CCCC4=O)cc3)c2s1 [Compound 42]
28 | 3.13 10^−6 cm s^−1 | Cc1cnccc1-c1cc2c(Nc3ccc(S(C)(=O)=O)cc3)ncnc2s1 [Compound 10]

target: T3, PI5P4Kα; test: not given; conditions: ADP-Glo; footnote a: inconsistent replicates, value shown is upper limit

Row | SMILES | PI5P4Kα pIC50
29 | CSc1ccc(Nc2ncnc3sc(-c4cnoc4)cc23)cc1 [Compound 29] | 6.6
30 | Cc1ncccc1-c1cc2ncnc(Nc3ccc4ncoc4c3)c2s1 [Compound 41] | 5.5

Next, values leading:

Row | PI5P4Kα pIC50 | SMILES
31 | 6.0 | Cc1ncccc1-c1cc2c(Nc3ccc(S(C)(=O)=O)cc3)ncnc2s1 [Compound 17]
32 | 7.0 | Cc1ncccc1-c1cc2ncnc(Nc3ccc(N4CCCC4=O)cc3)c2s1 [Compound 42]
33 | 6.2 | Cc1cnccc1-c1cc2c(Nc3ccc(S(C)(=O)=O)cc3)ncnc2s1 [Compound 10]

same assay, conditions: Table S1, two decimals; asterisk not explained

Row | ADP-Glo pIC50 PI5P4Kα | SMILES
34 | 6.59 | CSc1ccc(Nc2ncnc3sc(-c4cnoc4)cc23)cc1 [Compound 29]
35 | 5.48 | Cc1ncccc1-c1cc2ncnc(Nc3ccc4ncoc4c3)c2s1 [Compound 41]
